This passage reports IC50 results from patent US12377070B2, “Substituted sulfoximine derivatives” (CADILA HEALTHCARE LIMITED, priority 2019, dated 2025).

The term IC50 denotes the concentration needed to halve the response being measured.

Counter-ions that a name gives are not always drawn.

The test system of the first assay is IL-1β. Kind of assay: In vitro IL-1β inhibition in PMA-differentiated, LPS-primed, ATP-stimulated THP1 monocytes. Format: cell-based. Particulars: Homo sapiens, THP-1, THP1 cells differentiated with PMA 100 ng/mL; primed with 500 ng/mL LPS 4 hrs; compound 30 min; 5 mM ATP 1 hr; IL-1b in supernatant; read-out: IC50 (in vitro IL-1β inhibitory activity). As for the experimental part: THP1 monocytes were differentiated with PMA (100 ng/mL) and incubated at 37° C. for 20 hours in presence of 5% CO2. 2×10^5 differentiated cells were plated per well of 96 well tissue culture plates. The cells were primed using 500 ng/mL Lipopolysaccharide and incubating for 4 hrs under the same condition. The cells were then treated with various concentrations of the compounds for 30 min followed by treatment with 5 mM ATP for 1 hr. The supernatants were collected and analysed by IL-1b (Mabtech Cat #3415-1H-20) or TNF-a (Mabtech; Cat #3510-1H-20) detection kit. The data were analyzed using GraphPad Prism V7.0. Dose Response Curve (DRC) was constructed to determine the IC50 value by fitting percentage […] data to the GraphPad Prism using nonlinear regression analysis.
With `C[C@@]1(/C=C/S(=O)(=NC#N)NC(=O)Nc2c3c(cc4c2CCC4)CCC3)CCCN1Cc1nccs1` (stereo partly drawn) [Example 29, (E)-N′-cyano-N-((1,2,3,5,6,7-hexahydro-s-indacen-4-yl)carbamoyl)-2-((S)-2-methyl-1-(thiazol-2-ylmethyl)pyrrolidin-2-yl)ethene-1-sulfonimidamide], the IC50 is 15 µM. Same read-out and setting: the same measure for `CC(C)(C)OC(=O)N1CCC[C@]1(C)/C=C/S(=O)(=NC#N)NC(=O)Nc1c2c(cc3c1CCC3)CCC2` (stereo partly drawn) [Example 13, tert-butyl (2R)-2-((E)-2-(N′-cyano-N-((1,2,3,5,6,7-hexahydro-s-indacen-4-yl)carbamoyl)sulfamidimidoyl)vinyl)-2-methylpyrrolidine-1-carboxylate]: 4 µM; for `N#CN=S(=O)(/C=C/[C@H]1CCCN1S(=O)(=O)C1CCCCC1)NC(=O)Nc1c2c(cc3c1CCC3)CCC2` (stereo partly drawn) [Example 8, (E)-N′-cyano-2-((R)-1-(cyclohexylsulfonyl)pyrrolidin-2-yl)-N-((1,2,3,5,6,7-hexahydro-s-indacen-4-yl)carbamoyl)ethene-1-sulfonimidamide]: 12 µM.

Regarding `CC(C)N1CCC[C@@]1(C)/C=C/S(=O)(=NC#N)NC(=O)Nc1c2c(cc3c1CCC3)CCC2` (stereo partly drawn) [Example 17, (E)-N′-cyano-N-((1,2,3,5,6,7-hexahydro-s-indacen-4-yl)carbamoyl)-2-((S)-1-isopropyl-2-methylpyrrolidin-2-yl)ethene-1-sulfonimidamide], the IC50 amounted to 11 µM. On the same count and under the same terms, the same measure for `N#CN=S(=O)(/C=C/[C@H]1CCCN1S(=O)(=O)c1ccccc1C#N)NC(=O)Nc1c2c(cc3c1CCC3)CCC2` (stereo partly shown) [Example 9]: 11 µM; for `C[C@@]1(/C=C/S(=O)(=NC#N)NC(=O)Nc2c3c(cc4c2CCC4)CCC3)CCCN1C(N)=O` (stereo partly drawn) [Example 31, (2S)-2-((E)-2-(N′-cyano-N-((1,2,3,5,6,7-hexahydro-s-indacen-4-yl)carbamoyl)sulfamidimidoyl)vinyl)-2-methylpyrrolidine-1-carboxamide]: 9.2 µM.

On to `C[C@@]1(/C=C/S(=O)(=NC#N)NC(=O)Nc2c3c(cc4c2CCC4)CCC3)CCCN1C1CCCC1` (stereo partly drawn) [Example 18, (E)-N′-cyano-2-((S)-1-cyclopentyl-2-methylpyrrolidin-2-yl)-N-((1,2,3,5,6,7-hexahydro-s-indacen-4-yl)carbamoyl)ethene-1-sulfonimidamide], for which the IC50 turned out to be 18 µM. Same read-out and setting: the same measure for `CN1CCC[C@@H]1/C=C/S(=O)(=NC#N)NC(=O)Nc1c2c(cc3c1CCC3)CCC2` (stereo partly drawn) [Example 11, (E)-N′-cyano-N-((1,2,3,5,6,7-hexahydro-s-indacen-4-yl)carbamoyl)-2-((R)-1-methylpyrrolidin-2-yl)ethene-1-sulfonimidamide]: 2.3 µM; for `CC(=O)N1CCC[C@@]1(C)/C=C/S(=O)(=NC#N)NC(=O)Nc1c2c(cc3c1CCC3)CCC2` (stereo partly drawn) [Example 25, (E)-2-((S)-1-acetyl-2-methylpyrrolidin-2-yl)-N′-cyano-N-((1,2,3,5,6,7-hexahydro-s-indacen-4-yl)carbamoyl)ethene-1-sulfonimidamide]: 19 µM; for `CC(C)(C)OC(=O)N1CCC[C@@]1(C)/C=C/S(=O)(=NC#N)NC(=O)Nc1c2c(cc3c1CCC3)CCC2` (stereo partly drawn) [Example 3, tert-butyl (2S)-2-((E)-2-(N′-cyano-N-((1,2,3,5,6,7-hexahydro-s-indacen-4-yl)carbamoyl)sulfamidimidoyl)vinyl)-2-methylpyrrolidine-1-carboxylate]: 19 µM. Still for that read-out and setting: for `C[C@]1(/C=C/S(=O)(=NC#N)NC(=O)Nc2c3c(cc4c2CCC4)CCC3)CCCN1` (stereo partly drawn) [Example 14, (E)-N′-cyano-N-((1,2,3,5,6,7-hexahydro-s-indacen-4-yl)carbamoyl)-2-((R)-2-methylpyrrolidin-2-yl)ethene-1-sulfonimidamide hydrochloride] the value was 9 µM; for `N#CN=S(=O)(/C=C/[C@H]1CCCN1)NC(=O)Nc1c2c(cc3c1CCC3)CCC2` (stereo partly drawn) [Example 10, (E)-N′-cyano-N-((1,2,3,5,6,7-hexahydro-s-indacen-4-yl)carbamoyl)-2-((R)-pyrrolidin-2-yl)ethene-1-sulfonimidamide hydrochloride], 6.4 µM; for `C[C@@]1(/C=C/S(=O)(=NC#N)NC(=O)Nc2c3c(cc4c2CCC4)CCC3)CCCN1CC1CC1` (stereo partly drawn) [Example 21, (E)-N′-cyano-2-((S)-1-(cyclopropylmethyl)-2-methylpyrrolidin-2-yl)-N-((1,2,3,5,6,7-hexahydro-s-indacen-4-yl)carbamoyl)ethene-1-sulfonimidamide], 4.6 µM. The same measure, in the same setting: for `C[C@@]1(/C=C/S(=O)(=NC#N)NC(=O)Nc2c3c(cc4c2CCC4)CCC3)CCCN1C1CCC1` (stereo partly drawn) [Example 19, (E)-N′-cyano-2-((S)-1-cyclobutyl-2-methylpyrrolidin-2-yl)-N-((1,2,3,5,6,7-hexahydro-s-indacen-4-yl)carbamoyl)ethene-1-sulfonimidamide] the value was 4.6 µM; for `CC(C)(C)OC(=O)N1CCCC1/C=C/S(=O)(=NC#N)NC(=O)Nc1c2c(cc3c1CCC3)CCC2` [Example 34, tert-butyl (2R)-2-((E)-2-(N′-cyano-N-((1,2,3,5,6,7-hexahydro-s-indacen-4-yl)carbamoyl)sulfamidimidoyl)vinyl)pyrrolidine-1-carboxylate], 19 µM; for `CN1CCC[C@]1(C)/C=C/S(=O)(=NC#N)NC(=O)Nc1c2c(cc3c1CCC3)CCC2` (stereo partly drawn) [Example 15, (E)-N′-cyano-2-((R)-1,2-dimethylpyrrolidin-2-yl)-N-((1,2,3,5,6,7-hexahydro-s-indacen-4-yl)carbamoyl)ethene-1-sulfonimidamide], 2.1 µM.

Regarding `CC(C)CN1CCC[C@@]1(C)/C=C/S(=O)(=NC#N)NC(=O)Nc1c2c(cc3c1CCC3)CCC2` (stereo partly drawn) [Example 24, (E)-N′-cyano-N-((1,2,3,5,6,7-hexahydro-s-indacen-4-yl)carbamoyl)-2-((S)-1-isobutyl-2-methylpyrrolidin-2-yl)ethene-1-sulfonimidamide], the IC50 turned out to be 15 µM. Same read-out and setting: the same measure for `CCN1CCC[C@@]1(C)/C=C/S(=O)(=NC#N)NC(=O)Nc1c2c(cc3c1CCC3)CCC2` (stereo partly drawn) [Example 26, (E)-N′-cyano-2-((S)-1-ethyl-2-methylpyrrolidin-2-yl)-N-((1,2,3,5,6,7-hexahydro-s-indacen-4-yl)carbamoyl)ethene-1-sulfonimidamide]: 19 µM; for `CN1CCC[C@@]1(C)/C=C/S(=O)(=NC#N)NC(=O)Nc1c2c(cc3c1CCC3)CCC2` (stereo partly drawn) [Example 7, (E)-N′-cyano-2-((S)-1,2-dimethylpyrrolidin-2-yl)-N-((1,2,3,5,6,7-hexahydro-s-indacen-4-yl)carbamoyl)ethene-1-sulfonimidamide]: 1.5 µM.

The assay is the same for the next values; noted with them: THP1 cells differentiated with PMA 100 ng/mL; primed with 500 ng/mL LPS 4 hrs; compound 30 min; 5 mM ATP 1 hr; IL-1b in supernatant; 2,2,2-trifluoroacetate; read-out: IC50 (in vitro IL-1β inhibitory activity).
Turning to `C[C@@]1(/C=C/S(=O)(=NC#N)NC(=O)Nc2c3c(cc4c2CCC4)CCC3)CCCN1` (stereo partly drawn) [Example 22, (E)-N′-cyano-N-((1,2,3,5,6,7-hexahydro-s-indacen-4-yl)carbamoyl)-2-((S)-2-methylpyrrolidin-2-yl)ethene-1-sulfonimidamide 2,2,2-trifluoroacetate], the IC50 amounted to 8.9 µM.

The assay is the same for the next values; noted with them: THP1 cells differentiated with PMA 100 ng/mL; primed with 500 ng/mL LPS 4 hrs; compound 30 min; 5 mM ATP 1 hr; IL-1b in supernatant; hydrochloride; read-out: IC50 (in vitro IL-1β inhibitory activity).
For the compound `C[C@@]1(/C=C/S(=O)(=NC#N)NC(=O)Nc2c3c(cc4c2CCC4)CCC3)CCCN1` (stereo partly drawn) [Example 4, (E)-N′-cyano-N-((1,2,3,5,6,7-hexahydro-s-indacen-4-yl)carbamoyl)-2-((S)-2-methylpyrrolidin-2-yl)ethene-1-sulfonimidamide hydrochloride], the IC50 is 20 µM.

Staying with this assay, now noted: THP1 cells differentiated with PMA 100 ng/mL; primed with 500 ng/mL LPS 4 hrs; compound 30 min; 5 mM ATP 1 hr; IL-1b in supernatant; read-out: IC50 (in vitro IL-1β inhibitory activity).
For the compound `C[C@@]1(/C=C/S(=O)(=NC#N)NC(=O)Nc2c3c(cc4c2CCC4)CCC3)CCCN1` (stereo partly drawn) [Example 20, (E)-N′-cyano-N-((1,2,3,5,6,7-hexahydro-s-indacen-4-yl)carbamoyl)-2-((S)-2-methylpyrrolidin-2-yl)ethene-1-sulfonimidamide], the IC50 is 3.2 µM.
